The experiment in a line: Anti-HIV Activity: Previously, a series of two-fold dilution on test samples were carried out in a 96-well plate (50 μL/well). Two plates were made for measuring anti-HIV activity and measuring cytotoxicity. For each agent, measurement in duplicate was carried out. An MT-4 cell suspension of 2.5×10^5/mL was dispensed at 100 μL/well onto the 96-well plate containing the test samples. An HIV virus solution was dispensed at 50 μL/well onto the 96-well plate containing the test samples and the cell. To the plate for measuring cytotoxicity, a culture solution was dispensed at 50 μL/well. It was mixed by a plate mixer, and then incubated in a CO2 incubator for 4 days. […] Thirty microliters of a MTT (3-(4,5-dimethylthiazol-2-yl)-2,5-diphenyltetrazolium bromide) solution was dispensed to each well.A reaction was allowed to occur in a CO2 incubator for an hour. From each well, 150 μL of the supernatant was removed such that cells are not sucked. One-hundred and fifty microliters of a cell lysis solution was added thereto, and then it was mixed well by a plate mixer until the whole cells are lysed. The mixed 96-well plates were measured by a microplate reader at two wavelengths, 560 nm/690 nm. Based on the following calculation formula, 50% HIV inhibition concentration (EC50) was calculated. Conditions: MT4.

With `C[C@H]1CCN(C2CC2)[C@@H]2Cn3cc(-c4nnc(Cc5ccc(F)cc5F)s4)c(=O)c(OCc4ccccc4)c3C(=O)N12`, the EC50 (usually the concentration that produces a half-maximal response) is 3 nM.

With `C[C@H]1CCO[C@@H]2Cn3cc(-c4nnc(Cc5ccc(F)cc5F)s4)c(=O)c(O)c3C(=O)N12`, the EC50 was 2.1 nM.

Turning to `C[C@H]1CCO[C@@H]2Cn3cc(-c4nnc(Cc5c(F)cc(F)cc5F)s4)c(=O)c(O)c3C(=O)N12`, the EC50 is 1.4 nM.

Regarding `COCCN1CN(CC(C)C)n2cc(C(=O)NNC(=S)Cc3ccc(F)cc3F)c(=O)c(O)c2C1=O`, the EC50 is 3.4 nM.

As to `CCN1CN(CCOC)C(=O)c2c(O)c(=O)c(-c3ncc(Cc4cccc(Cl)c4F)s3)cn21`, the EC50 was 8.7 nM.

`C[C@@H]1C[C@@H](C)N2C(=O)c3c(O)c(=O)c(-c4nnc(Cc5ccc(F)cc5F)s4)cn3C[C@@H]2O1`: the EC50 is 2.7 nM.

For `O=C1c2c(O)c(=O)c(-c3ncc(Cc4ccc(F)cc4F)s3)cn2C[C@@H]2CCCCN12`, the EC50 is 11 nM.

Consider `C[C@@H]1CCC2C(=O)c3c(O)c(=O)c(-c4ncc(Cc5ccc(F)cc5F)s4)cn3C[C@@H]2O1` (stereo partly specified), for which the EC50 is 7.4 nM.

Regarding `C[C@H]1CCO[C@@H]2Cn3cc(-c4nnc(Cc5ccc(F)c(Cl)c5F)s4)c(=O)c(O)c3C(=O)N12`, the EC50 is 2.3 nM.

Regarding `C[C@@H]1C[C@@H](C)N2C(=O)c3c(O)c(=O)c(-c4nnc(Cc5cccc(Cl)c5F)s4)cn3C[C@@H]2O1`, the EC50 was 2.8 nM.

Take `O=C1c2c(O)c(=O)c(-c3nnc(Cc4ccc(F)cc4F)s3)cn2C[C@H]2O[C@@H]3CCC[C@@H]3N12`: the EC50 was 1.6 nM.
